Each molecule was assayed on P. falciparum 3D7 growth, pLDH absorbance (assay: blood-stage malaria parasite growth potency – strain 3D7, dose response (AID 2305)).

| SMILES | IC50 |
| --- | --- |
| O=S(=O)(c1ccc(OCc2ccc(Cl)cc2)cc1)c1cc2c(cc1O)CCN(C1CCC1)CC2 | 940 nM |
| C=C[C@]1(C)C[C@@H](OC(=O)c2cncn(COC)c2=O)[C@]2(C)[C@H](C)CC[C@]3(CCC(=O)[C@H]32)[C@@H](C)[C@@H]1O | 880 nM |
| FC(F)(F)c1ccc2nc(-c3ccc(-c4cccc(CN5CCN(c6ccncc6)CC5)c4)cc3)[nH]c2c1 | 120 nM |
| CCOC(=O)c1ccc(-c2cnoc2-c2cc(CC)c(OC)cc2O)o1 | 280 nM |
| O=C(Cc1ccccc1)NC(c1ccc(Cl)cc1)c1ccc2cccnc2c1O (configuration not stated) | 860 nM |
| O=C(C=Cc1cc([N+](=O)[O-])ccc1Cl)NC1CCC(CN2CCC(c3c[nH]c4ccccc34)CC2)CC1 (configuration not stated) | 740 nM |
| O=C(Nc1cccc(CN2CCCN(Cc3cccc(F)c3)CC2)c1)c1ccc(Cl)c(Cl)c1 | 920 nM |
| CCN(c1ccc(F)cc1)S(=O)(=O)c1cc(Br)cc2c1N(C(=O)C1CC1)CC2 | 940 nM |
| O=C(N[C@@H](CC1CCCCC1)C(=O)NC1CCCc2ccccc21)c1ccc(O)c(-c2ccc(Cl)c(Cl)c2)c1 (some centres not stated) | 200 nM |
| Cc1cccn2c(=O)c3cc(C(=O)NC(C)c4ccccc4)c(=N)n(CCN4CCOCC4)c3nc12 (configuration not stated) | 820 nM |
| CC(C)CN1CCCN(Cc2cccc(NC(=O)c3ccc(-c4ccccc4)cc3)c2)CC1 | 880 nM |
| COc1ccc(CCNCCCCCCNCCCc2ccc(Cl)cc2)cc1OC | 950 nM |
| COc1ccc(CNCc2ccsc2)cc1-c1ccc(OC)c(S(=O)(=O)NCCN2CCCC2)c1 | 920 nM |
| COc1ccc2nccc([C@@H](O)CN3CCC(NCc4ccc5c(c4)NC(=O)CO5)CC3)c2c1 | 1660 nM |
| O=C(Nc1ccc(F)c(C(F)(F)F)c1)NC1CCN(CCCCCNC(=O)[C@@H]2C[C@H]2c2ccc(Cl)c(Cl)c2)CC1 | 660 nM |
| CCCN(CCCN(CCCN(CCC)C(C)C)c1cc(C)nc(Nc2ccc(Cl)cc2)n1)C(C)C | 110 nM |
| CCNC(=O)NC1CCN(Cc2c(-c3cccs3)nc3ccccc3c2C(=O)N[C@@H](C)C2CCCCC2)CC1 | 90 nM |
| O=C(Nc1ccc(Oc2ccccc2)cc1)N[C@H]1CCN(Cc2ccc(OCCCN3CCCCC3)cc2)C1 | 180 nM |
| CCOC(=O)NC1=NC(C)(C)N(OCCCOc2cc(Cl)c(Cl)cc2Cl)C(NC(=O)OCC)=N1 | 30 nM |
| COc1ccc(-c2cnc(NCc3ccccc3)nc2)cc1CNC1CCN(C)CC1 | 780 nM |
| CN1CCC[C@H]1COc1ccc(CN2CC[C@H](NC(=O)c3ccc(Cl)c(Cl)c3)C2)cc1Br | 980 nM |
| Cc1ccc2c(=O)cc(CCc3cccc(F)c3F)n(CC(=O)N(Cc3ccc(-c4ccc(C(F)(F)F)cc4)cc3)C3CCN(C)CC3)c2n1 | 1260 nM |
| O=C(Nc1ccccc1)N(Cc1ccc(-c2cccc(CNCc3ccc4c(c3)OCO4)c2)cc1)C1CCN(Cc2ccccc2)CC1 | 280 nM |
| N#Cc1ccc(NC(=O)NC2CCN(CCCCCNC(=O)/C=C/c3ccc(Cl)c(Cl)c3)CC2)cc1 | 800 nM |

| SMILES | IC50 |
| --- | --- |
| COc1ccc(NC(=O)c2cc(NC(=O)C3(N)CC3)c(=O)n(Cc3ccc(C(N)=O)cc3)c2)cc1 | 790 nM |
| CC(C)c1ccc(CN2CCC(CNC(=O)c3cc(-c4cccc(Cl)c4)cs3)C2)cc1 (configuration not stated) | 750 nM |
| CC(=O)Nc1nc(C(=O)Nc2cccc(-c3ccc(-c4nc5c(C)cccc5[nH]4)s3)c2)cs1 | 220 nM |
| CC(C)Nc1ccc(Nc2ccnc3cc4ccccc4cc23)cc1 | 140 nM |
| O=[N+]([O-])c1ccc2ncnc(Nc3ccc(F)c(Cl)c3)c2c1 | 710 nM |
| CC(C)NCc1ccc(-c2cccc(-c3nc4ccccc4[nH]3)c2)cc1 | 230 nM |
| COc1ccccc1-c1sccc1C(=O)NC1(c2cc(Cl)cc(Cl)c2)CCCC1 | 940 nM |
| O=C(Cc1cnc[nH]1)Nc1cccc(-c2ccc(-c3nc4ccc(C(F)(F)F)cc4[nH]3)s2)c1 | 770 nM |
| Cc1ccc(CNC(=O)[C@H](CCCN)Nc2cc(C)nc(Nc3ccccc3)n2)cc1 | 1290 nM |
| CC(C)c1ccc(NC(=O)c2cccc(CN3CCCN(Cc4cccc(O)c4)CC3)c2)cc1 | 770 nM |
| Cc1cc(N[C@@H](Cc2ccccc2)C(=O)NCCOc2ccccc2)nc(Nc2ccccc2)n1 | 870 nM |
| O=C(Nc1cccc(CN2CCCN(Cc3cccc(Cl)c3)CC2)c1)c1ccc(Br)cc1 | 940 nM |
| CCN(CC)CCn1c2ccccc2c2ccc(C(=O)Nc3ccc4sc(C)nc4c3)cc21 | 1060 nM |
| CCCCC(=O)Nc1nc2ccc([N+](=O)[O-])cc2s1 | 760 nM |
| CCCCc1cc(NCc2ccncc2)nc(Nc2ccccc2)n1 | 840 nM |
| CCOc1cc(C(=O)NCCCN2CCN(c3cccc(Cl)c3)CC2)ccc1-c1nc2cc(Cl)c(F)cc2[nH]1 | 870 nM |
| CCOc1ccc(CNCCCCCCNCc2ccc(OCC)c3ccccc23)c2ccccc12 | 450 nM |
| COc1cc2c(cc1OC)CN(c1cc(N)c3cc(OC)c(OC)cc3n1)CC2 | 550 nM |
| COc1ccc(-c2onc(C(F)(F)F)c2-c2ccc(Br)cc2)c(O)c1 | 240 nM |
| Cc1nc(N)nc(N)c1-c1cc(Cl)c(Cl)c(Cl)c1 | 830 nM |
| COc1ccc(NC(=O)C2c3ccccc3C(=O)N(C3CCCC3)C2c2cccs2)cc1OC (configuration not stated) | 1090 nM |
| COc1ccc2nccc([C@@H](O)CN3[C@@H]4CC[C@H]3CC(NCc3ccc5c(n3)NC(=O)CS5)C4)c2n1 (some centres not stated) | 930 nM |
| CS(=O)(=O)CCNc1nccc(N2CCc3ncnc(Nc4ccc(OCc5cccc(F)c5)c(Cl)c4)c3C2)n1 | 130 nM |
